The source of these data is patent publication US20110086759A1, “CHEMICAL COMPOUNDS” (SYNGENTA CROP PROTECTION, INC., priority 2007, published 2011).

Common to all, as to assay type: in vivo
The test system of experiment [1] is Alopecurus myosuroides (ALOMY). The experiment can be described thus: Post-emergence biological efficacy, glasshouse pot test. Particulars: 312 h. The method in brief:
(§1)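 Scored 13 days after spraying on a 0 (no damage) to 100 (total damage) scale. Treatment was a post-emergence spray at 1000 or 250 g/ha, from acetone/water 50:50 plus 0.5% Tween 20, onto 8-day-old plants in soil pots. Growth at 24/16° C, 14 h photoperiod, 65% humidity, watered twice daily.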

The subject of experiment [2] is Echinochloa crus-galli (ECHCG). Described as above. Particulars: 312 h. The method in brief: as §1
Experiment [3] relates to Setaria faberi (SETFA). Described as above. As to conditions: 312 h. The method in brief: as §1
The subject of experiment [4] is Ipomea hederaceae (IPOHE). Described as above. Particulars: Ipomoea hederacea, 312 h. The method in brief: as §1
Experiment [5] deals with Amaranthus retoflexus (AMARE). The description is as above. As to conditions: Amaranthus retroflexus, 312 h. The method in brief: as §1
Experiment [6] deals with Solanum nigrum (SOLNI). Described as above. Particulars: 312 h. The method in brief: as §1
Experiment [7] relates to Alopecurus myosuroides (ALOMY). Briefly: Pre-emergence biological efficacy, glasshouse pot test. Particulars: 312 h. The method in brief: (§2)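 Damage was rated on a 0–100 scale 13 days after treatment, with plants kept at 24/16° C, 14 h light and 65% humidity. The pre-emergence spray, at 1000 or 250 g/ha in acetone/water 50:50 with 0.5% Tween 20, was applied one day after sowing.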

The subject of experiment [8] is Echinochloa crus-galli (ECHCG). Described as above. Particulars: 312 h. The method in brief: as §2
The subject of experiment [9] is Setaria faberi (SETFA). Described as above. As to conditions: 312 h. The method in brief:
as §2

The subject of experiment [10] is Ipomea hederaceae (IPOHE). The description is as above. As to conditions: Ipomoea hederacea, 312 h. The method in brief:
as §2

The subject of experiment [11] is Amaranthus retoflexus (AMARE). Described as above. As to conditions: Amaranthus retroflexus, 312 h. The method in brief: as §2
For experiment [12], the system named is Solanum nigrum (SOLNI). The experiment is described as above. As to conditions: 312 h. The method in brief:
as §2

The mark [13] stands for this setting: Rate 1,000 g/ha, post-emergence spray, evaluated after 13 days (100=total damage to plant; 0=no damage to plant), read-out: Percentage damage caused to weed species, post-emergence, ALOMY.
Setting [14] is: Rate 1,000 g/ha, post-emergence spray, evaluated after 13 days (100=total damage to plant; 0=no damage to plant), read-out: Percentage damage caused to weed species, post-emergence, ECHCG.
[15] abbreviates: Rate 1,000 g/ha, post-emergence spray, evaluated after 13 days (100=total damage to plant; 0=no damage to plant), read-out: Percentage damage caused to weed species, post-emergence, SETFA.
Setting [16] is: Rate 1,000 g/ha, post-emergence spray, evaluated after 13 days (100=total damage to plant; 0=no damage to plant), read-out: Percentage damage caused to weed species, post-emergence, IPOHE.
[17] abbreviates: Rate 1,000 g/ha, post-emergence spray, evaluated after 13 days (100=total damage to plant; 0=no damage to plant), read-out: Percentage damage caused to weed species, post-emergence, AMARE.
Where [18] appears, read: Rate 1,000 g/ha, post-emergence spray, evaluated after 13 days (100=total damage to plant; 0=no damage to plant), read-out: Percentage damage caused to weed species, post-emergence, SOLNI.
The mark [19] stands for this setting: pre-emergence, rate 1,000 g/ha, evaluated after 13 days (100=total damage to plant; 0=no damage), read-out: Percentage damage caused to weed species, ALOMY.
Where [20] appears, read: pre-emergence, rate 1,000 g/ha, evaluated after 13 days (100=total damage to plant; 0=no damage), read-out: Percentage damage caused to weed species, ECHCG.
The mark [21] stands for this setting: pre-emergence, rate 1,000 g/ha, evaluated after 13 days (100=total damage to plant; 0=no damage), read-out: Percentage damage caused to weed species, SETFA.
[22] abbreviates: pre-emergence, rate 1,000 g/ha, evaluated after 13 days (100=total damage to plant; 0=no damage), read-out: Percentage damage caused to weed species, IPOHE.
[23] abbreviates: pre-emergence, rate 1,000 g/ha, evaluated after 13 days (100=total damage to plant; 0=no damage), read-out: Percentage damage caused to weed species, AMARE.
The mark [24] stands for this setting: pre-emergence, rate 1,000 g/ha, evaluated after 13 days (100=total damage to plant; 0=no damage), read-out: Percentage damage caused to weed species, SOLNI.
Setting [25] is: post-emergence, 1,000 g/ha, evaluated after 13 days (100=total damage; 0=no damage), read-out: Percentage damage caused to weed species, ALOMY.
Where [26] appears, read: post-emergence, 1,000 g/ha, evaluated after 13 days (100=total damage; 0=no damage), read-out: Percentage damage caused to weed species, ECHCG.
[27] abbreviates: post-emergence, 1,000 g/ha, evaluated after 13 days (100=total damage; 0=no damage), read-out: Percentage damage caused to weed species, SETFA.
Where [28] appears, read: post-emergence, 1,000 g/ha, evaluated after 13 days (100=total damage; 0=no damage), read-out: Percentage damage caused to weed species, IPOHE.
The mark [29] stands for this setting: post-emergence, 1,000 g/ha, evaluated after 13 days (100=total damage; 0=no damage), read-out: Percentage damage caused to weed species, AMARE.
The mark [30] stands for this setting: post-emergence, 1,000 g/ha, evaluated after 13 days (100=total damage; 0=no damage), read-out: Percentage damage caused to weed species, SOLNI.
[31] abbreviates: pre-emergence, 1,000 g/ha, evaluated after 13 days (100=total damage; 0=no damage), read-out: Percentage damage ALOMY.
[32] abbreviates: pre-emergence, 1,000 g/ha, evaluated after 13 days (100=total damage; 0=no damage), read-out: Percentage damage ECHCG.
[33] abbreviates: pre-emergence, 1,000 g/ha, evaluated after 13 days (100=total damage; 0=no damage), read-out: Percentage damage SETFA.
The mark [34] stands for this setting: pre-emergence, 1,000 g/ha, evaluated after 13 days (100=total damage; 0=no damage), read-out: Percentage damage IPOHE.
The mark [35] stands for this setting: pre-emergence, 1,000 g/ha, evaluated after 13 days (100=total damage; 0=no damage), read-out: Percentage damage AMARE.
The mark [36] stands for this setting: pre-emergence, 1,000 g/ha, evaluated after 13 days (100=total damage; 0=no damage), read-out: Percentage damage SOLNI.

Turning to `COC(=O)c1nc(C2CC2)nc(N(C)C(C)C(O)c2ccccc2)c1Cl` (stereo not drawn) [Compound 5-270, 5-Chloro-2-cyclopropyl-4-[N-(2-hydroxy-1-methyl-2-phenyl-ethyl)-N-methyl-amino]-6-methoxycarbonyl-pyrimidine], the pest or weed control at 1000 g/ha in experiment [1] (setting [13]) worked out at 10%; in experiment [2] (setting [14]), 0%; in the experiment on Setaria faberi (SETFA) [3] (setting [15]) it was 30%; in experiment [4] (setting [16]), 90%; in experiment [5] (setting [17]), 90%; in the experiment on Solanum nigrum (SOLNI) [6] (setting [18]) it was 80%. Moreover, the pest or weed control at 1000 g/ha was 10% in [7] (setting [19]); 0% in experiment [8] (setting [20]); 0% in the experiment with Setaria faberi (SETFA) [9] (setting [21]); 20% in experiment [10] (setting [22]); 90% in experiment [11] (setting [23]); 50% with Solanum nigrum (SOLNI) [12] (setting [24]).
As for `COC(=O)c1nc(-c2cccc(OC)c2F)nc(NCc2ccco2)c1Cl` [Compound 249-48, 5-Chloro-2-(2-fluoro-3-methoxyphenyl)-4-(furan-2-ylmethyl-amino)-6-methoxy-carbonylpyrimidine], the pest or weed control at 1000 g/ha in experiment [1] (setting [13]) turned out to be 0%; in experiment [2] (setting [14]), 0%; in the experiment with Setaria faberi (SETFA) [3] (setting [15]), 0%; in experiment [4] (setting [16]), 30%; in experiment [5] (setting [17]) it was 70%; in the experiment on Solanum nigrum (SOLNI) [6] (setting [18]) it was 70%. For the same compound, the pest or weed control at 1000 g/ha turned out to be 0% in experiment [7] (setting [19]); 0% in experiment [8] (setting [20]); 20% with Setaria faberi (SETFA) [9] (setting [21]); 20% in experiment [10] (setting [22]); 70% in experiment [11] (setting [23]); 30% in the experiment with Solanum nigrum (SOLNI) [12] (setting [24]).
On to `C=CCN(Cc1cc(Cl)ccc1OC)c1nc(C2CC2)nc(C(=O)OC)c1Cl` [Compound 151-117, 5-Chloro-4-[N-(5-chloro-2-methoxyphenylmeth-yl)-N-prop-2-en-1-yl-amino]-2-cyclopropyl-6-methoxycarbonyl-pyrimidine], for which the pest or weed control at 1000 g/ha in experiment [1] (setting [13]) was found to be 0%; in experiment [2] (setting [14]) it was 0%; with Setaria faberi (SETFA) [3] (setting [15]), 20%; in experiment [4] (setting [16]) it was 60%; in experiment [5] (setting [17]), 30%; with Solanum nigrum (SOLNI) [6] (setting [18]), 30%. The pest or weed control at 1000 g/ha in experiment [7] (setting [19]) is 10%; in experiment [8] (setting [20]), 0%; with Setaria faberi (SETFA) [9] (setting [21]) it was 10%; in experiment [10] (setting [22]), 30%; in experiment [11] (setting [23]) it was 40%; in the experiment on Solanum nigrum (SOLNI) [12] (setting [24]) it was 30%.
On to `COC(=O)c1nc(C2CC2)nc(NCCCN2CCCC2=O)c1Cl` [Compound 4-246, 5-Chloro-2-cyclopropyl-6-methoxycarbonyl-4-[3-(2-oxo-pyrrolidin-1-yl)propylamino]-pyrimidine], for which the pest or weed control at 1000 g/ha in experiment [1] (setting [25]) was 0%; in experiment [2] (setting [26]) it was 0%; with Setaria faberi (SETFA) [3] (setting [27]), 30%; in experiment [4] (setting [28]), 60%; in experiment [5] (setting [29]), 100%; in the experiment with Solanum nigrum (SOLNI) [6] (setting [30]), 50%. The pest or weed control at 1000 g/ha was 0% in experiment [7] (setting [31]); 0% in experiment [8] (setting [32]); 0% in the experiment with Setaria faberi (SETFA) [9] (setting [33]); 30% in [10] (setting [34]); 80% in experiment [11] (setting [35]); 20% with Solanum nigrum (SOLNI) [12] (setting [36]).
`COC(=O)c1nc(C2CC2)nc(N(C)Cc2ccc(C(F)(F)F)cc2)c1Cl` [Compound 5-77, 5-Chloro-2-cyclopropyl-6-methoxycarbonyl-4-[N-methyl-N-(4-trifluoromethyl-phenyl)methyl-amino]pyrimidine]: the pest or weed control at 1000 g/ha in experiment [1] (setting [13]) was 20%; in experiment [2] (setting [14]), 40%; in the experiment on Setaria faberi (SETFA) [3] (setting [15]), 50%; in experiment [4] (setting [16]), 100%; in experiment [5] (setting [17]), 100%; in the experiment with Solanum nigrum (SOLNI) [6] (setting [18]) it was 100%. The pest or weed control at 1000 g/ha in experiment [7] (setting [19]) turned out to be 0%; in experiment [8] (setting [20]), 0%; in the experiment on Setaria faberi (SETFA) [9] (setting [21]), 0%; in experiment [10] (setting [22]), 20%; in experiment [11] (setting [23]), 90%; with Solanum nigrum (SOLNI) [12] (setting [24]), 20%.
As to `COC(=O)c1nc(C2CC2)nc(NCc2ncccc2C)c1Cl` [Compound 4-153, 5-Chloro-2-cyclopropyl-6-methoxycarbonyl-4-(3-methylpyrid-2-ylmethylamino)-pyrimidine], the pest or weed control at 1000 g/ha in [1] (setting [25]) worked out at 70%; in experiment [2] (setting [26]) it was 80%; in the experiment with Setaria faberi (SETFA) [3] (setting [27]) it was 90%; in experiment [4] (setting [28]) it was 100%; in experiment [5] (setting [29]), 100%; with Solanum nigrum (SOLNI) [6] (setting [30]) it was 100%. The pest or weed control at 1000 g/ha in [7] (setting [31]) amounted to 50%; in experiment [8] (setting [32]) it was 60%; in the experiment on Setaria faberi (SETFA) [9] (setting [33]) it was 60%; in experiment [10] (setting [34]) it was 100%; in [11] (setting [35]), 100%; in the experiment with Solanum nigrum (SOLNI) [12] (setting [36]), 100%.
For `COC(=O)c1nc(C2CC2)nc(NCC(C)(F)c2cccc(Cl)c2)c1Cl` (stereo not drawn) [Compound 4-241, 5-Chloro-4-[2-(3-chlorophenyl)-2-fluoro-propylamino]-2-cyclopropyl-6-methoxycarbonyl-pyrimidine], the pest or weed control at 1000 g/ha in [1] (setting [25]) came out at 0%; in experiment [2] (setting [26]), 10%; in the experiment with Setaria faberi (SETFA) [3] (setting [27]) it was 30%; in experiment [4] (setting [28]), 60%; in experiment [5] (setting [29]), 60%; in the experiment with Solanum nigrum (SOLNI) [6] (setting [30]), 70%. Moreover, the pest or weed control at 1000 g/ha was 0% in experiment [7] (setting [31]); 0% in [8] (setting [32]); 0% with Setaria faberi (SETFA) [9] (setting [33]); 0% in experiment [10] (setting [34]); 30% in [11] (setting [35]); 0% with Solanum nigrum (SOLNI) [12] (setting [36]).
